Data on four compounds can be found in EP4624466A1, “DEGRADER FOR DECOMPOSING CMET PROTEIN, AND PHARMACEUTICAL COMPOSITION COMPRISING SAME” (Innocure Therapeutics, Inc., priority 2022, dated 2024).

In experiment [1] the target is T1, c-MET (Homo sapiens, UniProt P08581). Briefly: c-MET protein degradation (Simple Western), MKN-45. Particulars: c-MET overexpressing gastric cancer cell line MKN-45, treated 24 hours; Table 2. It counts as cell-based. Further details: assess the resolution of the compound of the present invention for c-MET expressed in cells; endogenous in cells; host or cells: MKN45 (human gastric cancer). In short, it runs like this:
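Cells treated 24 h (gastric lines) or 48 h (lung lines); 3 µg lysate protein analysed by capillary Simple Western with anti-c-MET, normalized to GAPDH and expressed as % of 0.1% DMSO; DC50 from expression change.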

The test system of a further experiment is EBC-1. In words: Cell viability / antiproliferative assay (WST-8), EBC-1. In kind it is cell-based, human. Particulars: Homo sapiens, EBC-1, 72 h, read-out: EBC-1 IC50.
Another experiment deals with Hs746T. Briefly: Cell viability / antiproliferative assay (WST-8), Hs746T. As to conditions: Homo sapiens, Hs746T cells, 72 hours, Table 2. In kind it is cell-based.
For a further experiment, the system named is MKN-45. Briefly: Cell viability / antiproliferative assay (WST-8), MKN-45.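 Note: MKN-45 is a human gastric cancer line overexpressing c-MET, growth inhibition read as WST-8 formazan absorbance at 450 nm after 2 h dye incubation.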 Particulars: Homo sapiens, MKN-45, 72 h, read-out: MKN-45 IC50.
The target in experiment [2] is T1, c-MET. Briefly: c-MET protein degradation (Simple Western), EBC-1. Particulars: c-MET overexpressing lung cancer cell line EBC-1, treated 48 hours; Table 2. It counts as cell-based. Further details: assess the resolution of the compound of the present invention for c-MET expressed in cells; endogenous in cells; host or cells: EBC-1 (human lung cancer). On the procedure:
(§1) In order to assess the resolution of the compound of the present invention for c-MET expressed in cells, cells were dispensed in a 12-well plate at a concentration of 2 × 10^5 cells/well, and then gastric cancer cell lines were treated with samples for 24 hours and lung cancer cell lines were treated for 48 hours. Cell lysates were collected using a scraper on ice, centrifuged at 4°C15,000 rpm for 30 min to obtain a protein-containing supernatant. Protein expression was then measured using the Simple Western Automated Western Blot System Abby instrument using 3 µg of protein for each sample. SDS and heat-induced denaturation proteins were separated by molecular weight, attached to capillary, reacted with anti-c-MET or anti-GAPDH antibodies, which are primary antibodies, and then reacted with HRP-conjugated secondary antibodies, and analyzed the protein expression signal with compass software. Protein expression was normalized based on the expression value of GAPDH, and protein development in each sample was measured as a percentage (%) based on 100% of samples treated with 0.1% DMSO carriers, and DC50 (concentration of a compound where 50% protein inhibition is achieved) was calculated from the change in protein expression amount due to compound treatment.

Another experiment deals with SNU-638. Briefly: Cell viability / antiproliferative assay (WST-8), SNU-638. Particulars: Homo sapiens, SNU-638, 72 h, read-out: SNU-638 IC50. It counts as cell-based, human.
Experiment [3] deals with T1, c-MET. In words: c-MET protein degradation (Simple Western), SNU-638. It counts as cell-based. Further details: assess the resolution of the compound of the present invention for c-MET expressed in cells; endogenous in cells; host or cells: SNU638 (human gastric cancer). As to conditions: c-MET overexpressing gastric cancer cell line SNU-638, treated 24 hours; Table 2. On the procedure:
as §1

Experiment [4] addresses T2, c-MET (Homo sapiens, UniProt P08581, DEL963-1009).
T2 construct: assess the resolution of the compound of the present invention for c-MET expressed in cells; endogenous in cells; host or cells: Hs746T (human gastric cancer)
Briefly: c-MET protein degradation (Simple Western), Hs746T. Particulars: c-MET exon 14 skipping mutant gastric cancer cell line Hs746T, treated 24 hours; Table 2. It counts as cell-based. The protocol:
as §1

T1 sequence (P08581 25-1390): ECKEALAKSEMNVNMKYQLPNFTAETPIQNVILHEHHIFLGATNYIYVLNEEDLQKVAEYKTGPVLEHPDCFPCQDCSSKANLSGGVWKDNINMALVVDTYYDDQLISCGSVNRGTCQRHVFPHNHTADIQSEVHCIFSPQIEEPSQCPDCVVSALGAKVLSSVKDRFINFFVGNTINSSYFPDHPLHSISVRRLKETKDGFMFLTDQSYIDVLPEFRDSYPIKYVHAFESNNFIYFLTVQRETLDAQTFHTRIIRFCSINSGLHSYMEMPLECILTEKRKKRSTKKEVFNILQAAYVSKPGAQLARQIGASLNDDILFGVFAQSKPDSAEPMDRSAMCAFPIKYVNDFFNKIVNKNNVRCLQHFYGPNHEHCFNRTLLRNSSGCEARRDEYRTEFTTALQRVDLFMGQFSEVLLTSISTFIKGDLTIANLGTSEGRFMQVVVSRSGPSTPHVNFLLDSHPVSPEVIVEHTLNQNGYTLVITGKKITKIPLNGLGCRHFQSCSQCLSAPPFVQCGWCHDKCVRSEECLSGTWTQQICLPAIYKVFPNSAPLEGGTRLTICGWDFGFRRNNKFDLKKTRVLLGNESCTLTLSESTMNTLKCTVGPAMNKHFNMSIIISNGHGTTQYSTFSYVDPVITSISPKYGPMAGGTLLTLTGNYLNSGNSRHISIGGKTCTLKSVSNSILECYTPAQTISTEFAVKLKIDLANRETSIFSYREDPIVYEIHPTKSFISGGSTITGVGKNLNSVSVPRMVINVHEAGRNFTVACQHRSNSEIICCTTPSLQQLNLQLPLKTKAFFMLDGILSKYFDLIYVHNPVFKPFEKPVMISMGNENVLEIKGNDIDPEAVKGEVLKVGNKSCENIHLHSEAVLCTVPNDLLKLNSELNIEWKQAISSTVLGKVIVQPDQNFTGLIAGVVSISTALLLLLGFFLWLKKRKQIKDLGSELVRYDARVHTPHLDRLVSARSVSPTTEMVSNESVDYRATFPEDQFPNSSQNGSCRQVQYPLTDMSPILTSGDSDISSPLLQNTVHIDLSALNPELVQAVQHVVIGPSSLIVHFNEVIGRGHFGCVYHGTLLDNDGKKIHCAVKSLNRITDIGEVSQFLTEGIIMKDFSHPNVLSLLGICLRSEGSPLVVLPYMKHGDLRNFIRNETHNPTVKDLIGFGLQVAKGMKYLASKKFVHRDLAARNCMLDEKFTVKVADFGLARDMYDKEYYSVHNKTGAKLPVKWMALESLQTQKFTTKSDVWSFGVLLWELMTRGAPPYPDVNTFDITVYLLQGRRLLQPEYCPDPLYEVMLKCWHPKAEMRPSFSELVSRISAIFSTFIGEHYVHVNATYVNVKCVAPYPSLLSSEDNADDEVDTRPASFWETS
T2 sequence (P08581 with tags, fused parts or gaps DEL963-1009): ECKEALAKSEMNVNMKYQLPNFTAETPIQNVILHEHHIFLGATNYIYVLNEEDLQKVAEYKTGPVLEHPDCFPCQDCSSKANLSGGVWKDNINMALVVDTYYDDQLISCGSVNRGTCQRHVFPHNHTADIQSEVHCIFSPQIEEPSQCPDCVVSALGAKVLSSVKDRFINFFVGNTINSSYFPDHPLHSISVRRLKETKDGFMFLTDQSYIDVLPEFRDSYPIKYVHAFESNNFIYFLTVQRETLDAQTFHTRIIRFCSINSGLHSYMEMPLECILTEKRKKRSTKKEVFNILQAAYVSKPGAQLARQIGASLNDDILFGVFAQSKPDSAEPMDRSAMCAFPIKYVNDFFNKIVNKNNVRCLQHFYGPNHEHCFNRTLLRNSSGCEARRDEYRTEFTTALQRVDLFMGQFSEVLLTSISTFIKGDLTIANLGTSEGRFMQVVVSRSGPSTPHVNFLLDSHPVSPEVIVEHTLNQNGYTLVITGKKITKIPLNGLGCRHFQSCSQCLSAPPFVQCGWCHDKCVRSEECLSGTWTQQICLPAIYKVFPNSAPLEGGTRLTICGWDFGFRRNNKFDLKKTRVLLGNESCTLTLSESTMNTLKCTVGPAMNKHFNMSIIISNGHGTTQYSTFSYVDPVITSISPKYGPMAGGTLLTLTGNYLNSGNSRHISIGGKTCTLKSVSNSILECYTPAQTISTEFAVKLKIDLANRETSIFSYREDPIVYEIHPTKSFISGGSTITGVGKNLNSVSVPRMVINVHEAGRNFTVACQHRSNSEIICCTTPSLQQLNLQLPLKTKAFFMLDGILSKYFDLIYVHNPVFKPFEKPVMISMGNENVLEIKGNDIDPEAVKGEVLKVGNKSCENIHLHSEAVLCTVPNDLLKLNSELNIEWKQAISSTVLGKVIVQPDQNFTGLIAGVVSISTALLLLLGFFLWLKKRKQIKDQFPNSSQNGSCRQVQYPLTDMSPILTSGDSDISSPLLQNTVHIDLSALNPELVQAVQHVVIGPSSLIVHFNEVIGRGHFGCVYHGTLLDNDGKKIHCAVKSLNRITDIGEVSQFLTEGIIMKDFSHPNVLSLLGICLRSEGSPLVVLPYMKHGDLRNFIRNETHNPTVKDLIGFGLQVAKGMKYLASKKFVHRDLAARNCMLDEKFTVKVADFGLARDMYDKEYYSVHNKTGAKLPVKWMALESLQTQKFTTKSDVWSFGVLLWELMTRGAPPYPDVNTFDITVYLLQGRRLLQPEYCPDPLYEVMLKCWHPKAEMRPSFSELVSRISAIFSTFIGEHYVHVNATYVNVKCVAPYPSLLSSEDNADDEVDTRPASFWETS
T2 sequence (P08581 25-307 partner limits assumed): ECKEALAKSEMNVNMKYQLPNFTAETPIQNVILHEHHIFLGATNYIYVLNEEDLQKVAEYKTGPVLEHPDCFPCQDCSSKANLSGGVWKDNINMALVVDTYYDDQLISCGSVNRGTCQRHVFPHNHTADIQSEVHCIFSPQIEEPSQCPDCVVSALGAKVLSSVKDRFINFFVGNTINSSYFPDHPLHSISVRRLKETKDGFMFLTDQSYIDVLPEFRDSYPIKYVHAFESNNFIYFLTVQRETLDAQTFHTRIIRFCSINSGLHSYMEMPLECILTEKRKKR

On c-MET [1], `Cc1nn(C2CCC(=O)NC2=O)c(=O)c2cc(F)c(N3CCN(CC4CCN(C(=O)CN5CCC(COc6cnc(-c7cccc(Cn8nc(-c9cccc(C#N)c9)ccc8=O)c7)nc6)CC5)CC4)CC3)cc12` (centres unmarked) [ICT-0001204] displayed a DC50 of less than 100 nM. The IC50 with EBC-1 is less than 100 nM; in the experiment with Hs746T, 100 to 1000 nM; with MKN-45, less than 100 nM.

Turning to `N#Cc1cccc(-c2ccc(=O)n(Cc3cccc(-c4ncc(N5CCN(CC6CCN(c7ccc(NC8CCC(=O)NC8=O)cc7F)CC6)CC5)cn4)c3)n2)c1` (centres unmarked) [ICT-0001402], the 50% inhibitory concentration (IC50) in the experiment with EBC-1, with Hs746T and with SNU-638 was less than 100 nM in each case. Moreover, the DC50 at c-MET [2], on c-MET [3] and at c-MET [4] was less than 100 nM each time.

Take `Cc1nn(C2CCC(=O)NC2=O)c(=O)c2ccc(N3CCN(c4ccc(NC(=O)CN5CCC(COc6cnc(-c7cccc(Cn8nc(-c9cccc(C#N)c9)ccc8=O)c7)nc6)CC5)cc4)CC3)cc12` (centres unmarked) [ICT-0001207]: the half-maximal degradation concentration (DC50) at c-MET [1], on c-MET [2], on c-MET [3] and on c-MET [4] was less than 100 nM each time. The IC50 is less than 100 nM in the experiment with EBC-1, 100 to 1000 nM in the experiment on Hs746T, less than 100 nM with SNU-638 and less than 100 nM in the experiment on MKN-45.

With `Cc1nn(C2CCC(=O)NC2=O)c(=O)c2ccc(N3CCN(CCN4CCC(COc5cnc(-c6cccc(Cn7nc(-c8cccc(C#N)c8)ccc7=O)c6)nc5)CC4)CC3)cc12` (centres unmarked) [ICT-0001277, 3-(1-{[3-(5-{[1-(2-{4-[2-(2,6-dioxopiperidin-3-yl)-4-methyl-1-oxo-1,2-dihydrophthalazine-6-yl]piperazine-1-yl}ethyl)piperidine-4-il]methoxy}pyrimidine-2-yl)phenyl]methyl}6-oxo-1,6-dihydropyridazine-3-yl)benzonitrile], the DC50 on c-MET [1], on c-MET [2], at c-MET [3] and on c-MET [4] was less than 100 nM in each case. Further, the IC50 with EBC-1, in the experiment on Hs746T, in the experiment with SNU-638 and in the experiment with MKN-45 was less than 100 nM throughout.
